Here are results for five compounds from US11180511B2, “Diagnosis, treatment and prevention of neurotensin receptor-related conditions” (Friedrich-Alexander-Universitat Erlangen-Nurnberg, priority 2016, dated 2021).

One data set relates to HT29. As to the kind of experiment: Biodistribution in xenografted nude mice, HT29 tumor uptake. In kind it is in vivo, Athymic nude mice (nu/nu). The following applies: i.v. Here is the method: (§1) Athymic nude mice (nu/nu) were obtained from Harlan Winkelmann GmbH (Borchen, Germany) at 4 weeks of age and were kept under standard conditions (12 h light/dark) with food and water available ad libitum. AsPC-1, PC-3 or HT29 cells were harvested and suspended in sterile PBS at a concentration of 2×10^7 cells/ml. Viable cells (2×10^6) in PBS (100 μL) were injected subcutaneously in the back. Two weeks after inoculation (tumor weight: 400-800 mg), the mice (about 10-12 weeks old with about 40 g body weight) were used for biodistribution studies.
(§2) The xenografted mice were injected with ^177Lu-14 (FAUC Lu469, 1 MBq/mouse) intravenously into the tail vein. The mice were sacrificed by cervical dislocation at 24 h and 48 h post-injection (p.i.). Tumors and other tissues (blood, lung, liver, kidneys, heart, brain, muscle and intestine) were removed and weighed. Radioactivity of the dissected tissues was determined using a γ-counter. Results were expressed as percentage of injected dose per gram of tissue (% ID/g), and tumor-to-organ ratios were calculated. Results are reported as percent injected dose per gram (% ID/g) in Table 2 and FIG. 1.

A further data set deals with PC1-3 tumors. As to the kind of experiment: Therapy study, PC1-3 tumors, single-dose administration. The format is in vivo, Nude mice. The following applies: single dose 30±9 MBq/animal. Here is the method: Nude mice bearing PC1-3 tumors at the back were used for the therapy study. One week after inoculation of the PC1-3 cells, ^177Lu-14 (FAUC Lu469) was injected in four mice at a dose of 30±9 MBq/animal. Eight additional animals were injected with saline as control animals. The body weight and the tumor diameter was measured every three days. […] The tumor inhibition growth factor was 64% after 49 days.

For data set [1], the system named is AsPC-1 tumors (human pancreas adenocarcinoma). Put plainly: Therapy study, AsPC-1 tumors, single-dose and double-dose administration. In kind it is in vivo, Nude mice. The method, then:
Nude mice bearing AsPC-1 tumors (human pancreas adenocarcinoma) at the back were used for the therapy study. One week after inoculation of the AsPC-1 cells, six mice were injected with a single dose of ^177Lu-14 (FAUC Lu469) (28±6 MBq/animal, group B, single-dose administration) at day 0 and another six animals were injected with a double-dose of ^177Lu-14 (FAUC Lu469) (2×29±4 MBq/animal, group C, double-dose administration), consisting of the first dose (29 MBq/animal) at the starting day of radiotherapy (day 0) and the second dose (29 MBq/animal) at day 10 after begin of treatment. Six additional animals were injected with saline as untreated control animals (group A). The body weight and the tumor diameter were measured five times a week.

The nature of data set [2]: Determination of partition coefficient (log D7.4). In kind it is physicochemical. The following applies: 1-octanol/PBS pH 7.4, room temperature. The method, then:
The lipophilicity of ^177Lu-14 (FAUC Lu469) was assessed by determination of the water-octanol partition coefficient. 1-Octanol (0.5 mL) was added to a solution of approximately 25 kBq of ^177Lu-14 in PBS (0.5 mL, pH 7.4) and the layers were vigorously mixed for 3 min at room temperature. The tubes were centrifuged (14000 rpm, 1 min) and three samples of 100 μL of each layer were counted in a γ-counter (Wallac Wizard). The partition coefficient was determined by calculating the ratio cpm (octanol)/cpm (PBS) and expressed as log D74) log(cpmoctanol/cpmbuffer). The experiments were performed in triplicates. The log D7.4 value was determined to be −1.8±0.1 (mean value±standard deviation, n=6).

The nature of data set [3]: Stability in human plasma. The following applies: 37° C., up to 7 days. In kind it is in vitro ADME. Here is the method: An aliquot of ^177Lu-14 (FAUC Lu469) in PBS (50 μL) was added to human plasma (200 μL) and incubated at 37° C. Aliquots (25 μL) were taken at various time intervals (1 h, 4 h, 24 h, 96 h, 7 days) and quenched with acetonitrile/0.1% TFA (1:1, 100 μL). The samples were centrifuged, and the supernatants were analyzed by radio-HPLC.

A further data set concerns AsPC1. Put plainly: Biodistribution in xenografted nude mice, AsPC1 tumor uptake. In kind it is in vivo, Athymic nude mice (nu/nu). The following applies: for Uptake AsPC1 tumor: i.v. Here is the method: as §1
The xenografted mice were injected with ^177Lu-14 (FAUC Lu469, 1 MBq/mouse) intravenously into the tail vein. […] Tumors and other tissues (blood, lung, liver, kidneys, heart, brain, muscle and intestine) were removed and weighed. Radioactivity of the dissected tissues was determined using a γ-counter. Results were expressed as percentage of injected dose per gram of tissue (% ID/g), and tumor-to-organ ratios were calculated. Results are reported as percent injected dose per gram (% ID/g) in Table 2 and FIG. 1.

Data set [4] can be described thus: Biodistribution in xenografted nude mice, normal tissue. In kind it is in vivo, Athymic nude mice (nu/nu). The following applies: i.v. The method, then: as §1, §2
The test system of a further data set is PC3. Put plainly: Biodistribution in xenografted nude mice, PC3 tumor uptake. The format is in vivo, Athymic nude mice (nu/nu). The following applies: i.v. The method, then: as §1, §2
The target in another data set is hNTS1 (Homo sapiens, UniProt P30989). As to the kind of experiment: competitive radioligand binding, hNTS1. The following applies: [^3H]NT; CHO. The method, then:
(§3) Affinities for NTS1 and NTS2 as well as for dopaminergic and serotonergic receptors were determined in competitive radioligand binding assays using appropriate radioligands as shown in Table 1.

The target in another data set is T1, p5-HT1A (Sus scrofa, UniProt A0A4X1UTF5).
T1 sequence (A0A4X1UTF5 1-422): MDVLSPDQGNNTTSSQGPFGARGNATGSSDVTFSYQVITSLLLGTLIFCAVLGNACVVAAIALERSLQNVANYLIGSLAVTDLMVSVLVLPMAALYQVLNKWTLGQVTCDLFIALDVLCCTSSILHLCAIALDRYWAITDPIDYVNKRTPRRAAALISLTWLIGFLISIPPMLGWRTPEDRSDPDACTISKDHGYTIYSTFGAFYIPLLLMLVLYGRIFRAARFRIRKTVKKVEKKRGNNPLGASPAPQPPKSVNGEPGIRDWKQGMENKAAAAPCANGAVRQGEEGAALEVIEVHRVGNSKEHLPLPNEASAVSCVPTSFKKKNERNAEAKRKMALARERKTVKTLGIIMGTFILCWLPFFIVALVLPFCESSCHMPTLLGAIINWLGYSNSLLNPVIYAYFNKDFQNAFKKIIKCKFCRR
Put plainly: competitive radioligand binding, p5-HT1A. The following applies: [^3H] WAY600135. Here is the method:
as §3

A further data set has as its target hD2long (Homo sapiens, UniProt P14416). As to the kind of experiment: competitive radioligand binding, hD2long. The following applies: [^3H] spiperone. Here is the method: as §3
The target in another data set is T2, hD4.4 (Homo sapiens, UniProt P21917).
T2 sequence (P21917 1-419): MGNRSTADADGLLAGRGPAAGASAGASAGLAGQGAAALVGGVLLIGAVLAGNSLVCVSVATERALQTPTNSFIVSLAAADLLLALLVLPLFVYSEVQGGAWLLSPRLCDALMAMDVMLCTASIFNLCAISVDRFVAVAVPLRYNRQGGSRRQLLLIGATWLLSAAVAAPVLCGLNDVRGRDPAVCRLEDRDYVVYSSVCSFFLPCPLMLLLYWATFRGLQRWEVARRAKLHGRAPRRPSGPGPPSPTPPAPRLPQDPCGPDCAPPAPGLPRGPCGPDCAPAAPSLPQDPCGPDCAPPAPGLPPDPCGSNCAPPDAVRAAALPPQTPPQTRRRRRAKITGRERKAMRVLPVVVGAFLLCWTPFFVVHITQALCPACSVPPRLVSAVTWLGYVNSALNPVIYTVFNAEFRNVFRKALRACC
As to the kind of experiment: competitive radioligand binding, hD4.4. The following applies: [^3H] spiperone. Here is the method: as §3

For another data set, the target named is hNTS2 (Homo sapiens, UniProt O95665). As to the kind of experiment: competitive radioligand binding, hNTS2. The following applies: [^3H]NT (8-13); HEK. Here is the method: as §3
Sequence of hNTS2 (O95665 whole entry): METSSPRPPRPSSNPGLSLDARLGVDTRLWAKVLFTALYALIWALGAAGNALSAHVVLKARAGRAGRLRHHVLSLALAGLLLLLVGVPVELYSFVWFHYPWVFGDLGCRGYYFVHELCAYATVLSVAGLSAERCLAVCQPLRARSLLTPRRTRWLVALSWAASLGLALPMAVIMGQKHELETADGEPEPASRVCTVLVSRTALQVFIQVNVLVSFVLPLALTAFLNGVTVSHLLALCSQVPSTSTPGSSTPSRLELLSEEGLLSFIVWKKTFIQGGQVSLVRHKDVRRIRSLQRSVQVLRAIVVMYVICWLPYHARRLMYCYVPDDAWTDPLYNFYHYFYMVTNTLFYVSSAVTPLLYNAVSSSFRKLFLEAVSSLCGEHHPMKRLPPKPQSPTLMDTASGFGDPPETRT
A further data set concerns the target pα1. Put plainly: competitive radioligand binding, pα1. The following applies: [^3H] prazosine.
Another data set concerns the target h5-HT2 (Homo sapiens, UniProt P28223). As to the kind of experiment: competitive radioligand binding, h5-HT2. The following applies: [^3H] ketanserin. The method, then: as §3
For a further data set, the target named is hD1 (Homo sapiens, UniProt P21728). As to the kind of experiment: competitive radioligand binding, hD1. The following applies: [^3H] SCH 23990. Here is the method: as §3
Sequence of hD1 (P21728 whole entry): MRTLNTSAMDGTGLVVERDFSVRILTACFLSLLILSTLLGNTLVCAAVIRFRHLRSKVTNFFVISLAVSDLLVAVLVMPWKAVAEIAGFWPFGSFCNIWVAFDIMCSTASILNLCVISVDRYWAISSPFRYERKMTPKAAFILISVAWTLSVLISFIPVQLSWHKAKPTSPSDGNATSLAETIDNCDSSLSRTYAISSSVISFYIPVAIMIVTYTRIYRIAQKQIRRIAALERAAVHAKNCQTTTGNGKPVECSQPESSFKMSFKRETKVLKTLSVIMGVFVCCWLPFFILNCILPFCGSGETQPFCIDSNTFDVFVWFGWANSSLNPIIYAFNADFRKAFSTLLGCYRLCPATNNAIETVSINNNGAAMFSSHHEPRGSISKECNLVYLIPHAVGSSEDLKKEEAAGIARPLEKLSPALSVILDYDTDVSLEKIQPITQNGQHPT
The target in another data set is hD5 (Homo sapiens, UniProt P21918). Put plainly: competitive radioligand binding, hD5. The following applies: [^3H] SCH 23990. Here is the method: as §3
Sequence of hD5 (P21918 whole entry): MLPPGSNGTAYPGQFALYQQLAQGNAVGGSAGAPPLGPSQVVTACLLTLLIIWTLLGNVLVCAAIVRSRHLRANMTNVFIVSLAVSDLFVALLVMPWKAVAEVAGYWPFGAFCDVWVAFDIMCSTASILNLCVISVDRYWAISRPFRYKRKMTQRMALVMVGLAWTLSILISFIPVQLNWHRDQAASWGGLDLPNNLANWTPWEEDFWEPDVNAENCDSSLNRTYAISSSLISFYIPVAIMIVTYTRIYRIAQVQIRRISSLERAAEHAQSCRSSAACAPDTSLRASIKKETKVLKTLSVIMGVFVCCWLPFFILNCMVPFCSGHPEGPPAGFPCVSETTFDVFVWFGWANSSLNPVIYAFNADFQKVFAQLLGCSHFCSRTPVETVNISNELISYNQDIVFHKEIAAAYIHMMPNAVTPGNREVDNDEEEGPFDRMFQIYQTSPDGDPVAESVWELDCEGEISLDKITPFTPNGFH
The next data set has as its target hD2short (Homo sapiens, UniProt P14416). Put plainly: competitive radioligand binding, hD2short. The following applies: [^3H] spiperone. The method, then:
as §3

Another data set has as its target hD3 (Homo sapiens, UniProt P35462). Put plainly: competitive radioligand binding, hD3. The following applies: [^3H] spiperone. Here is the method: as §3

Sequence of hNTS1 (P30989 whole entry): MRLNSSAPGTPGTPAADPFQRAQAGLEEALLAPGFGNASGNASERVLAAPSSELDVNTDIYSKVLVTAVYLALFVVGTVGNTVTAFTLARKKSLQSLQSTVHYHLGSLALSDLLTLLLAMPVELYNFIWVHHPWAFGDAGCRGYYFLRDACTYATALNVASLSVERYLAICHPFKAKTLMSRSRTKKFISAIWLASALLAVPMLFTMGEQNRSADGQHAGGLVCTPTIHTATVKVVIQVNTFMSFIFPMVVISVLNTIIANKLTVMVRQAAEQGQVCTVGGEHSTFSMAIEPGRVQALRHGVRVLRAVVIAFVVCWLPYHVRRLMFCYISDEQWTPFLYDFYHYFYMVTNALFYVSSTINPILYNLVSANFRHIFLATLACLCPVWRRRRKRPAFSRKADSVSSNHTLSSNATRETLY
Sequence of hD3 (P35462 whole entry): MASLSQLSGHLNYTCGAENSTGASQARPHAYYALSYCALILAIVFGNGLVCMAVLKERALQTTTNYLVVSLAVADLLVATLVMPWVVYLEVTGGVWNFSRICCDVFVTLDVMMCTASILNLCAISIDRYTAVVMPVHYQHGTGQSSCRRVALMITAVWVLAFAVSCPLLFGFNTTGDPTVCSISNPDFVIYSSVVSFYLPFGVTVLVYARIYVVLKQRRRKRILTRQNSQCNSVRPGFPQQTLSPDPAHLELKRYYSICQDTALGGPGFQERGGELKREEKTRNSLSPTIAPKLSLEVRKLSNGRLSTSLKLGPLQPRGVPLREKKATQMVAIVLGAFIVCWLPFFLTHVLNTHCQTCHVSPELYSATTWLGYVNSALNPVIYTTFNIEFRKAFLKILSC
Sequence of hD2long (P14416 whole entry): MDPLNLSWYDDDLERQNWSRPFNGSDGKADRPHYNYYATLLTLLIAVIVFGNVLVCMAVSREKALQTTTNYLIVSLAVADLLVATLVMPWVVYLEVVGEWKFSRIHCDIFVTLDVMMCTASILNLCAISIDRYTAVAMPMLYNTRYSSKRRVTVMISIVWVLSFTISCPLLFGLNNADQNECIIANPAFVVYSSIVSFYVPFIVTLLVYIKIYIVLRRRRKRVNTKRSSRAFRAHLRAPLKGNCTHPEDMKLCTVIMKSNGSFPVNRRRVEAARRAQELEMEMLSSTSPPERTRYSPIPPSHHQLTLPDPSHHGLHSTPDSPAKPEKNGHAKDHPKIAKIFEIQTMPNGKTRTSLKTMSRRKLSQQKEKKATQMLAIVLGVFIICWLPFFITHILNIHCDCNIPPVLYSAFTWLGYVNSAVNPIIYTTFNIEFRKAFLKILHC
Sequence of hD2short (P14416 1-414 isoform P14416-2): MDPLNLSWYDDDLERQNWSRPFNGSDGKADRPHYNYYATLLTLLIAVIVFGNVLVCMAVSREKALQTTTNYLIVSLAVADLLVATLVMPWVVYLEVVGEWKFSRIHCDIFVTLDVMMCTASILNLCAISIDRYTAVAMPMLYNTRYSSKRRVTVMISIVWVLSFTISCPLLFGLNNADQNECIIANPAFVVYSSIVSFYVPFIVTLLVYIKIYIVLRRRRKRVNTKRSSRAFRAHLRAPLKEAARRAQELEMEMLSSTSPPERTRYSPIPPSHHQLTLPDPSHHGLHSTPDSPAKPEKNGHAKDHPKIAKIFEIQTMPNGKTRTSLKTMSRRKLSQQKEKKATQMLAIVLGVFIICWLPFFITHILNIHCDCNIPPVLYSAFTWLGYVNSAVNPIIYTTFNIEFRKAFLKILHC
Sequence of h5-HT2 (P28223 whole entry): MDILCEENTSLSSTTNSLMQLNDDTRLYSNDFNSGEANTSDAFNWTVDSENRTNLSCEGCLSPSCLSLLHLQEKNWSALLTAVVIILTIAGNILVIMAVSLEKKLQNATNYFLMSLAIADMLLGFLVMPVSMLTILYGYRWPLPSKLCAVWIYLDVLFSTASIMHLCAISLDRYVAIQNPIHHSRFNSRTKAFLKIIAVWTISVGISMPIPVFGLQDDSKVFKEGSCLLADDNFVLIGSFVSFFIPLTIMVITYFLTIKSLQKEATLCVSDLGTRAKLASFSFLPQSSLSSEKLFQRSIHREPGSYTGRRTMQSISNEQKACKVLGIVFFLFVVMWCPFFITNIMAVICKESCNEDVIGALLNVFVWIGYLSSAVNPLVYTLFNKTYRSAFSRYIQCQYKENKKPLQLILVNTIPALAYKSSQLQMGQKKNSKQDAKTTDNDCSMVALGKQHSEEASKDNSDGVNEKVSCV

With `COc1cccc(OC)c1-c1cc(C(=O)NC2(C(=O)O)C3CC4CC(C3)CC2C4)nn1-c1ccc(-c2cn(CCCN(C)CCCNC(=O)CN3CCN4CCN5CCN(CC3)CC(=O)[O][177Lu]([O]C(=O)C4)[O]C(=O)C5)nn2)cc1C(C)C` (stereo not drawn) [^177Lu-14], the “Uptake HT29 tumor” value in the data set with HT29 (24 h p.i.) is 18.64 % ID/g. Besides, the “Uptake HT29 tumor” value in the data set with HT29 (48 h p.i.) came out at 16.34 % ID/g. The “tumor inhibition growth factor” value in the data set on PC1-3 tumors (after 49 days) is given as 64%. For the same compound, in the data set on PC1-3 tumors, the “survival versus untreated control animals” value is reported as “significantly longer survival”; the “tumor growth and tumor size versus untreated control animals” value is “significantly inhibited tumor growth and a reduction in tumor size”. Moreover, in [1] (double-dose 2×29±4 MBq/animal (group C), day 0 and day 10), the “longer survival than untreated control animals” value is on record as “+209%”. Also, the “tumor growth and tumor size versus untreated control animals” value in data set [1] (single dose 28±6 MBq/animal (group B), between day 11 and 21, adjusted p=0.049) was “significant tumor growth inhibition and a reduction in tumor size”. Moreover, in data set [2], the “log D7.4” value is reported as −1.8±0.1. Moreover, in [3], the “Stability in human plasma (degradation products by radio-HPLC)” value is on record as “No degradation products were observed”. The “Uptake AsPC1 tumor” value with AsPC1 (24 h p.i.) was found to be 22.36 % ID/g. Also, in the data set with AsPC1 (48 h p.i.), the “Uptake AsPC1 tumor” value is 14.41 % ID/g. Further, in the data set on AsPC1 (day 7 p.i.), the AsPC1-tumor retention was 13.2±2.1 % ID/g. In data set [4] (24 h p.i.), the Uptake blood is 0.36 % ID/g, the Uptake brain is given as 0.06 % ID/g, the Uptake femur came out at 0.89 % ID/g and the Uptake heart was found to be 1.05 % ID/g. Also, in data set [4] (24 h p.i.), the Uptake intestine is given as 1.40 % ID/g, the Uptake kidney came to 4.54 % ID/g, the Uptake liver came to 11.61 % ID/g and the Uptake lung worked out at 4.15 % ID/g. Besides, in [4] (24 h p.i.), the Uptake muscle was found to be 0.29 % ID/g and the Uptake spleen was found to be 2.40 % ID/g. In data set [4] (48 h p.i.), the Uptake blood stood at 0.14 % ID/g, the Uptake brain is recorded as 0.04 % ID/g, the Uptake femur amounted to 0.75 % ID/g and the Uptake heart came out at 0.56 % ID/g. In data set [4] (48 h p.i.), this compound gave an Uptake intestine of 0.77 % ID/g, an Uptake kidney of 2.48 % ID/g, an Uptake liver of 5.45 % ID/g and an Uptake lung of 1.23 % ID/g. In data set [4] (48 h p.i.), the Uptake muscle is recorded as 0.19 % ID/g and the Uptake spleen is 1.60 % ID/g. Besides, the “Uptake PC3 tumor” value in the data set with PC3 (24 h p.i.) came out at 15.57 % ID/g. The “Uptake PC3 tumor” value in the data set with PC3 (48 h p.i.) amounted to 10.85 % ID/g.
A word on the Ki: it is a dissociation constant, usually derived from enzyme kinetics or from competition with a known ligand. `COc1cccc(OC)c1-c1cc(C(=O)NC2(C(=O)O)C3CC4CC(C3)CC2C4)nn1-c1ccc(-c2cn(CCCN(C)CCCNC(=O)CN3CCN(CC(=O)[O-])CCN(CC(=O)[O-])CCN(CC(=O)[O-])CC3)nn2)cc1C(C)C.[Lu+3]` (stereo not drawn) [Compound 14]: the Ki is 0.19 nM on hNTS1; over 50 µM on p5-HT1A; over 50 µM on hD2long; over 50 µM at hD4.4; 13 nM at hNTS2; over 50 µM on pα1. In addition, the Ki at h5-HT2, at hD1, at hD5, on hD2short and on hD3 was over 50 µM in each case.
Turning to `COc1cccc(OC)c1-c1cc(C(=O)NC2(C(=O)O)C3CC4CC(C3)CC2C4)nn1-c1ccc(-c2cn(CCCN(C)CCCNC(=O)CN3CCN(CC(=O)O)CCN(CC(=O)O)CCN(CC(=O)O)CC3)nn2)cc1C(C)C` (stereo not drawn) [Compound 13], the results for the Ki at hNTS1 and at hNTS2 were 1.9 nM and 100 nM, respectively.
`COc1cccc(OC)c1-c1cc(C(=O)NC2(C(=O)O)C3CC4CC(C3)CC2C4)nn1-c1ccc(-c2cn(CCCN(C)C[C@@H](O)CNC(=O)CN3CCN(CC(=O)[O-])CCN(CC(=O)[O-])CCN(CC(=O)[O-])CC3)nn2)cc1C(C)C.[Lu+3]` (stereo partly drawn) [Compound 20]: the results for the Ki on hNTS1 and on hNTS2 were 1.4 nM and 27 nM, respectively.
The matching figures for `COc1cccc(OC)c1-c1cc(C(=O)NC2(C(=O)O)C3CC4CC(C3)CC2C4)nn1-c1ccc(-c2cn(CCCN(C)C[C@@H](O)CNC(=O)CN3CCN(CC(=O)O)CCN(CC(=O)O)CCN(CC(=O)O)CC3)nn2)cc1C(C)C` (stereo partly drawn) [Compound 19]: 1.6 nM and 59 nM.
